According to ChEMBL document CHEMBL4507285, “Data for DCP probe MRL-SYKi” (2021):

Tests used:
[1] = target: Phosphorylase b kinase gamma catalytic chain, skeletal muscle/heart isoform (Homo sapiens) (UniProt Q16816); details: Compound concentration 100.0 nM
[2] = target: Proto-oncogene tyrosine-protein kinase Src (Homo sapiens, UniProt P12931); details: Compound concentration 100.0 nM
[3] = target: Tyrosine-protein kinase Lyn (Homo sapiens) (UniProt P07948); details: Compound concentration 100.0 nM
[4] = target: Protein kinase C epsilon type (Homo sapiens) (UniProt Q02156); details: Compound concentration 100.0 nM
[5] = target: cGMP-dependent protein kinase 1 (Homo sapiens) (UniProt Q13976); details: Compound concentration 100.0 nM
[6] = target: Serine/threonine-protein kinase MRCK alpha (Homo sapiens) (UniProt Q5VT25); details: Compound concentration 100.0 nM
[7] = target: Histamine H1 receptor (Homo sapiens) (UniProt P35367); details: Compound concentration 10.0 uM
[8] = target: High affinity nerve growth factor receptor (Homo sapiens, UniProt P04629); details: Compound concentration 100.0 nM
[9] = target: Serine/threonine-protein kinase WNK2 (Homo sapiens) (UniProt Q9Y3S1); details: Compound concentration 100.0 nM
Chain of Serine/threonine-protein kinase WNK2 (Homo sapiens) (Q9Y3S1 whole entry): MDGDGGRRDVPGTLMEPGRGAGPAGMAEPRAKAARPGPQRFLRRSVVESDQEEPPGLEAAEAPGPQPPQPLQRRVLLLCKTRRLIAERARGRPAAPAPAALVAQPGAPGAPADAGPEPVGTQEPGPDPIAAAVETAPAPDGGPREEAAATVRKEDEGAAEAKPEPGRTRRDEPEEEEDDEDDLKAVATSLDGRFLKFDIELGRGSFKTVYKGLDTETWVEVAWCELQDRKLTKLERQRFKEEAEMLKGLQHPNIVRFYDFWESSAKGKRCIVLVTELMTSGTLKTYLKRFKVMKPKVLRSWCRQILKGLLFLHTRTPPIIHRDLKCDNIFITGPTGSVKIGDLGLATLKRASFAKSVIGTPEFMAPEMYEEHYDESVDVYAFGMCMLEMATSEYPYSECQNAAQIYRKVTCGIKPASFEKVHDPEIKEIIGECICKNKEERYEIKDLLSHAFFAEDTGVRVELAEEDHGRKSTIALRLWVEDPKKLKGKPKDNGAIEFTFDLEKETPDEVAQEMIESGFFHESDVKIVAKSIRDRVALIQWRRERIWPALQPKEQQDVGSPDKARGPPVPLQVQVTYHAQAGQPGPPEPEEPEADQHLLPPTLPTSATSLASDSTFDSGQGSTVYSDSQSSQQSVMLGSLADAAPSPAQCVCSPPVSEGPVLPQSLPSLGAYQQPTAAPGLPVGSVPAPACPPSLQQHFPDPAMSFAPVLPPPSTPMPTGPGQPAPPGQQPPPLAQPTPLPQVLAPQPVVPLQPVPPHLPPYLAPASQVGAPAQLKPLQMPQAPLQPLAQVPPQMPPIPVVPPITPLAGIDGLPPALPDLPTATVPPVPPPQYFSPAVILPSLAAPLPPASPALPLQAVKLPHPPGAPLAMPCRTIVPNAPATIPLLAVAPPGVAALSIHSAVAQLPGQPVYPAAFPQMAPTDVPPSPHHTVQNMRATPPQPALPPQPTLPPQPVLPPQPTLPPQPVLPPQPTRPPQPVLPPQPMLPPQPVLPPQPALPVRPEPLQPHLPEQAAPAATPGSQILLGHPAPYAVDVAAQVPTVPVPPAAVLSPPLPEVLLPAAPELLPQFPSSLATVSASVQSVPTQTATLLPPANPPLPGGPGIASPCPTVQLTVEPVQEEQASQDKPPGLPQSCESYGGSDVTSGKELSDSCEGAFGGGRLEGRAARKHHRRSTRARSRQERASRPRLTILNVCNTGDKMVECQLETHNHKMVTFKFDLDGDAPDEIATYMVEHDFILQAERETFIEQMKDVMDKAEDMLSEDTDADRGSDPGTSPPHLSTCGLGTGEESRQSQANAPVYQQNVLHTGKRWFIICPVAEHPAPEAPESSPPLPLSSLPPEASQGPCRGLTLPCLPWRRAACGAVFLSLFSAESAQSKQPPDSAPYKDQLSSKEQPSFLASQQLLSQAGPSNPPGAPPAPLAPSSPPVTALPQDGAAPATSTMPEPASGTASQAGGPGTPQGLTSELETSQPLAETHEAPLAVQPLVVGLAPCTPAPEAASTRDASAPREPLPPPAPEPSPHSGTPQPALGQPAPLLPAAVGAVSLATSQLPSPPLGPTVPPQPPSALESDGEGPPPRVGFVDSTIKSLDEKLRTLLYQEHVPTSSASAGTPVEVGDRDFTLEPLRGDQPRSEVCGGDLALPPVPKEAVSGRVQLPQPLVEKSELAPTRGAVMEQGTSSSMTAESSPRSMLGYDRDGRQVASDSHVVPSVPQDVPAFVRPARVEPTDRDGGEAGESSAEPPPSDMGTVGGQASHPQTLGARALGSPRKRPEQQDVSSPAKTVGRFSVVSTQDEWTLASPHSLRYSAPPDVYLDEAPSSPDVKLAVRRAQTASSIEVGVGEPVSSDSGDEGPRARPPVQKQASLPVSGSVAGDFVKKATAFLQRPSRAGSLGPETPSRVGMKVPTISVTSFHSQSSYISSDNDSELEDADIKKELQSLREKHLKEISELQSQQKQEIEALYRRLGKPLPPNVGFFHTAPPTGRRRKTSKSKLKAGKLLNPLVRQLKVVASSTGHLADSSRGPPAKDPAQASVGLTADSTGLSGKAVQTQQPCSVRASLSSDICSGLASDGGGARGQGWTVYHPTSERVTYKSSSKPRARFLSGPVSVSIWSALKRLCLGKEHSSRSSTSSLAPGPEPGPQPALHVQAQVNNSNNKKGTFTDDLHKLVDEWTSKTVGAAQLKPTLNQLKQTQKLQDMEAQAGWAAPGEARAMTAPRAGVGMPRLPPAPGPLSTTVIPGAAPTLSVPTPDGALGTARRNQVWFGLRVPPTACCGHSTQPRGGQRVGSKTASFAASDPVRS

[10] = target: Cyclin-dependent kinase-like 5 (Homo sapiens) (UniProt O76039); details: Compound concentration 100.0 nM
[11] = target: Serine/threonine-protein kinase 25 (Homo sapiens) (UniProt O00506); details: Compound concentration 100.0 nM
[12] = target: Serine/threonine-protein kinase PRP4 homolog (Homo sapiens) (UniProt Q13523); details: Compound concentration 100.0 nM
[13] = target: Fibroblast growth factor receptor 4 (Homo sapiens) (UniProt P22455); details: Compound concentration 100.0 nM
[14] = target: Tyrosine-protein kinase Fyn (Homo sapiens, UniProt P06241); details: Compound concentration 100.0 nM
[15] = target: Beta-adrenergic receptor kinase 1 (Homo sapiens) (UniProt P25098); details: Compound concentration 100.0 nM
[16] = target: Activin receptor type-1 (Homo sapiens) (UniProt Q04771); details: Compound concentration 100.0 nM
Chain of Activin receptor type-1 (Homo sapiens) (Q04771 whole entry): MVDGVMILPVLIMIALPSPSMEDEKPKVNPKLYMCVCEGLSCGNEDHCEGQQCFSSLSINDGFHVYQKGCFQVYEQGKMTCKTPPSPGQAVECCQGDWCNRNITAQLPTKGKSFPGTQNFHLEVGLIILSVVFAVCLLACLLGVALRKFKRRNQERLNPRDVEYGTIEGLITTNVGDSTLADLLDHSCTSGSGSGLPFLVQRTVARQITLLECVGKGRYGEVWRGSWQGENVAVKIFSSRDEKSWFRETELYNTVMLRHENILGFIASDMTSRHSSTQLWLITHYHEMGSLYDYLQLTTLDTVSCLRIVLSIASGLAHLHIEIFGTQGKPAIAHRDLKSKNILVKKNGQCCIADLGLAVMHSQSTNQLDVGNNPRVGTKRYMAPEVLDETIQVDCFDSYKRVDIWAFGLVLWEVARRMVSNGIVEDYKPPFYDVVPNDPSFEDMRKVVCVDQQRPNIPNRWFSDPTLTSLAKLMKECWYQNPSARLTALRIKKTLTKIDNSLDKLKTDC

[17] = target: 5-hydroxytryptamine receptor 1D (Homo sapiens) (UniProt P28221); details: Compound concentration 10.0 uM
[18] = target: Tyrosine-protein kinase HCK (Homo sapiens) (UniProt P08631); details: Compound concentration 100.0 nM
[19] = tested on: Tyrosine-protein kinase ABL1 (Homo sapiens), P00519 [M351T]; details: Compound concentration 100.0 nM
[20] = target: Ephrin type-A receptor 3 (Homo sapiens) (UniProt P29320); details: Compound concentration 100.0 nM
[21] = target: Myotonin-protein kinase (Homo sapiens) (UniProt Q09013); details: Compound concentration 100.0 nM
[22] = target: Ephrin type-A receptor 6 (Homo sapiens) (UniProt Q9UF33); details: Compound concentration 100.0 nM
[23] = target: Mitogen-activated protein kinase kinase kinase 11 (Homo sapiens) (UniProt Q16584); details: Compound concentration 100.0 nM
[24] = target: Dual specificity tyrosine-phosphorylation-regulated kinase 1A (Homo sapiens) (UniProt Q13627); details: Compound concentration 100.0 nM
[25] = target: Vascular endothelial growth factor receptor 1 (Homo sapiens) (UniProt P17948); details: Compound concentration 100.0 nM
[26] = target: Dual serine/threonine and tyrosine protein kinase (Homo sapiens) (UniProt Q6XUX3); details: Compound concentration 100.0 nM
[27] = tested on: Hepatocyte growth factor receptor (Homo sapiens), P08581 [M1250T]; details: Compound concentration 100.0 nM
[28] = target: Hepatocyte growth factor receptor (Homo sapiens) (UniProt P08581); details: Compound concentration 100.0 nM
[29] = target: Calcium/calmodulin-dependent protein kinase type II subunit gamma (Homo sapiens) (UniProt Q13555); details: Compound concentration 100.0 nM
[30] = target: Tyrosine-protein kinase ABL1 (Homo sapiens) (UniProt P00519); details: Compound concentration 100.0 nM
[31] = tested on: Tyrosine-protein kinase ABL1 (Homo sapiens), P00519 [F317I]; details: Compound concentration 100.0 nM
[32] = target: Muscarinic acetylcholine receptor M3 (Homo sapiens) (UniProt P20309); details: Compound concentration 10.0 uM
[33] = target: Cyclin-dependent kinase 11A (Homo sapiens) (UniProt Q9UQ88); details: Compound concentration 100.0 nM
[34] = target: Phosphatidylinositol 3-kinase catalytic subunit type 3 (Homo sapiens) (UniProt Q8NEB9); details: Compound concentration 100.0 nM
[35] = target: Rho-associated protein kinase 2 (Homo sapiens) (UniProt O75116); details: Compound concentration 100.0 nM
Chain of Rho-associated protein kinase 2 (Homo sapiens) (O75116 whole entry, looked up): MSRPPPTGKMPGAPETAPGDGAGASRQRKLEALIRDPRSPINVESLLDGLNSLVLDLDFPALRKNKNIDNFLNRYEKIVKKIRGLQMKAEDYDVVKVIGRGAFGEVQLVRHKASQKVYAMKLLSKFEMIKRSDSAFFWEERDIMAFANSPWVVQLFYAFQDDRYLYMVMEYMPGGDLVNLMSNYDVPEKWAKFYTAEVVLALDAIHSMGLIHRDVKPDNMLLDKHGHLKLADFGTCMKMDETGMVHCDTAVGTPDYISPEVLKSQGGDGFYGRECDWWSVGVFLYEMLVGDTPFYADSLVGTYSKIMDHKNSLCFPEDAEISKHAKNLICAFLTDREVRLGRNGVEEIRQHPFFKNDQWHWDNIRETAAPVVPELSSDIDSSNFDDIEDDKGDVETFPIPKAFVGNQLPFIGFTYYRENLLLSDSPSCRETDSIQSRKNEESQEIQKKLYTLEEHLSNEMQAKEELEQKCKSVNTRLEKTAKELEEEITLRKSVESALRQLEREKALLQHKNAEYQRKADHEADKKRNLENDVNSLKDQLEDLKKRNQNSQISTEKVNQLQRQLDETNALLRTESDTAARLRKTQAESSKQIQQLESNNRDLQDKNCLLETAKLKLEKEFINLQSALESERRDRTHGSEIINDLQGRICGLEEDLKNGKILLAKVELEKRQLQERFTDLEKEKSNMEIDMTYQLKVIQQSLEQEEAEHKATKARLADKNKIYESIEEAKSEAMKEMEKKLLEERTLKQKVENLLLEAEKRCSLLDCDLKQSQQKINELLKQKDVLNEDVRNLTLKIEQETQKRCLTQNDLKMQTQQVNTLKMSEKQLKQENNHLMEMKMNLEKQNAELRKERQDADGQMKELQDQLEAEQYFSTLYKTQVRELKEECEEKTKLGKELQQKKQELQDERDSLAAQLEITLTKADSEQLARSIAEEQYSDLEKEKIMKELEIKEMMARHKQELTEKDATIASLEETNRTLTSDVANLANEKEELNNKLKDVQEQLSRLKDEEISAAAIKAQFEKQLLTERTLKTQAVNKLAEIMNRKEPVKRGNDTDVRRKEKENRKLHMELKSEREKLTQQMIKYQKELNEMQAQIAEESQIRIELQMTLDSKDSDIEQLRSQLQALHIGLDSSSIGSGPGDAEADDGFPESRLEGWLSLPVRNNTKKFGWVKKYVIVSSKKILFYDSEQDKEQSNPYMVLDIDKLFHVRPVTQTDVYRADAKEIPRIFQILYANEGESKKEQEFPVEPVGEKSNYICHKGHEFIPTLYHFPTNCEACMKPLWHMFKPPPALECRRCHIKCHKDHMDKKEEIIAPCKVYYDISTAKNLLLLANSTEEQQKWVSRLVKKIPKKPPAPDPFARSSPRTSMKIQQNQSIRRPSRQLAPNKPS

[36] = target: Serine/threonine-protein kinase D3 (Homo sapiens) (UniProt O94806); details: Compound concentration 100.0 nM
[37] = target: Calcium/calmodulin-dependent protein kinase type II subunit beta (Homo sapiens) (UniProt Q13554); details: Compound concentration 100.0 nM
Chain of Calcium/calmodulin-dependent protein kinase type II subunit beta (Homo sapiens) (Q13554 whole entry): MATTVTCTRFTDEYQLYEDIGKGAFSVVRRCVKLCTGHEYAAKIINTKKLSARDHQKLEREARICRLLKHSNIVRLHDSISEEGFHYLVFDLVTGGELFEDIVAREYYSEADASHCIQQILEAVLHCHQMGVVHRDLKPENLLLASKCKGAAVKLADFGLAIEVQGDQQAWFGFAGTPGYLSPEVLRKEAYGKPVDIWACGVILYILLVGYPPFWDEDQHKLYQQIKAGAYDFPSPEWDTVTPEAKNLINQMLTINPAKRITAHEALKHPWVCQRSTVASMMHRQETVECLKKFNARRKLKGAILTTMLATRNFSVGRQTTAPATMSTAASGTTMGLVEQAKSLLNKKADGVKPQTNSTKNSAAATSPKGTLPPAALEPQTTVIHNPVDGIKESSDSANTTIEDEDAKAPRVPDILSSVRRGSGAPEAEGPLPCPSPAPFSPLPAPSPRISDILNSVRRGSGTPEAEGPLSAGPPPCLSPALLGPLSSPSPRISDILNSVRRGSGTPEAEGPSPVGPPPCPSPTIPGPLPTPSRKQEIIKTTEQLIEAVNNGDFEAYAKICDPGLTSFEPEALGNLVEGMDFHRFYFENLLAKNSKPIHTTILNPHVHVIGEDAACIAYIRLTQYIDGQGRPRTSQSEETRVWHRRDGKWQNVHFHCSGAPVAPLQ

[38] = target: Tyrosine-protein kinase ABL1 (Homo sapiens) (UniProt P00519); details: Compound concentration 100.0 nM; remark: listed apart in the source
[39] = target: Bone morphogenetic protein receptor type-1B (Homo sapiens) (UniProt O00238); details: Compound concentration 100.0 nM
[40] = target: Homeodomain-interacting protein kinase 2 (Homo sapiens) (UniProt Q9H2X6); details: Compound concentration 100.0 nM
[41] = target: Ephrin type-A receptor 4 (Homo sapiens) (UniProt P54764); details: Compound concentration 100.0 nM
[42] = target: Tyrosine-protein kinase BTK (Homo sapiens) (UniProt Q06187); details: Compound concentration 100.0 nM
[43] = target: Dual specificity protein kinase CLK3 (Homo sapiens) (UniProt P49761); details: Compound concentration 100.0 nM
[44] = target: Phosphatidylinositol 5-phosphate 4-kinase type-2 gamma (Homo sapiens) (UniProt Q8TBX8); details: Compound concentration 100.0 nM
[45] = target: Mast/stem cell growth factor receptor Kit (Homo sapiens) (UniProt P10721); details: Compound concentration 100.0 nM
[46] = target: Focal adhesion kinase 1 (Homo sapiens) (UniProt Q05397); details: Compound concentration 100.0 nM

Cc1ccc(-c2cnc([C@@]3(O)CC[C@H](C(=O)O)C(C)(C)C3)s2)cc1Nc1cccc(C(F)(F)F)n1 [MRL-SYKi-NC]
residual activity [1]: 100% | residual activity [2]: 100% | residual activity [3]: 100% | residual activity [4]: 100% | residual activity [5]: 77.5% | residual activity [6]: 100% | inhibition [7]: 9.09% | residual activity [8]: 64.5% | residual activity [9]: 98.6% | residual activity [10]: 100% | residual activity [11]: 72.5% | residual activity [12]: 82.6% | residual activity [13]: 100% | residual activity [14]: 100% | residual activity [15]: 100% | residual activity [16]: 100% | inhibition [17]: 16.5% | residual activity [18]: 71.9% | residual activity [19]: 87% | residual activity [20]: 93.7% | residual activity [21]: 93.7% | residual activity [22]: 100% | residual activity [23]: 100% | residual activity [24]: 81.4% | residual activity [25]: 97.7% | residual activity [26]: 100% | residual activity [27]: 89% | residual activity [28]: 100% | residual activity [29]: 88.2% | residual activity [30]: 78.4% | residual activity [31]: 80.1% | inhibition [32]: 6.69% | residual activity [33]: 100% | residual activity [34]: 67.2% | residual activity [35]: 85.3% | residual activity [36]: 100% | residual activity [37]: 95.3% | residual activity [38]: 100% | residual activity [39]: 92.3% | residual activity [40]: 73.5% | residual activity [41]: 100% | residual activity [42]: 86.1% | residual activity [43]: 76% | residual activity [44]: 97.5% | residual activity [45]: 100% | residual activity [46]: 90.2%

Cc1cc(Nc2nccc(C)n2)cc(-c2cnc([C@@]3(O)CC[C@H](C(=O)O)C(C)(C)C3)s2)c1 [MRL-SYKi]
residual activity [1]: 100% | residual activity [2]: 53.7% | residual activity [3]: 100% | residual activity [4]: 100% | residual activity [5]: 100% | residual activity [6]: 86.2% | inhibition [7]: 7.85% | residual activity [8]: 30.2% | residual activity [9]: 81.2% | residual activity [10]: 96.1% | residual activity [11]: 100% | residual activity [12]: 90.3% | residual activity [13]: 100% | residual activity [14]: 36.1% | residual activity [15]: 97.5% | residual activity [16]: 59.3% | inhibition [17]: 2.65% | residual activity [18]: 83.3% | residual activity [19]: 78.3% | residual activity [20]: 100% | residual activity [21]: 99.8% | residual activity [22]: 95.8% | residual activity [23]: 92.6% | residual activity [24]: 100% | residual activity [25]: 100% | residual activity [26]: 100% | residual activity [27]: 93.7% | residual activity [28]: 100% | residual activity [29]: 95.2% | residual activity [30]: 45.3% | residual activity [31]: 100% | inhibition [32]: 17.4% | residual activity [33]: 86.1% | residual activity [34]: 99.6% | residual activity [35]: 85.9% | residual activity [36]: 100% | residual activity [37]: 100% | residual activity [38]: 63.3% | residual activity [39]: 100% | residual activity [40]: 83.5% | residual activity [41]: 78.6% | residual activity [42]: 81.5% | residual activity [43]: 100% | residual activity [44]: 91.9% | residual activity [45]: 71.7% | residual activity [46]: 99.9%
